# From patent US4853221A, “Method for treating non-small cell lung cancer, head and neck cancers and breast cancer” (Warner-Lambert Company, priority 1987, dated 1989)
# Experiments:
# [1] = test system: non-small cell lung cancer; experiment: Phase I clinical trials, non-small cell lung cancer; assay type: in vivo, human; conditions: single agent
# Method: Several Phase I clinical trials employing trimetrexate in human patients were carried out. In one study, 36 patients were treated with trimetrexate as a single agent at daily doses of 0.5 mg/m^2 /day to 12 mg/m^2 /day administered intravenously for five days.
# In additional Phase I clinical studies, patients were administered trimetrexate with single intravenous doses ranging between 5 and 450 mg/m^2 and with weekly doses of slightly greater than 100 mg/m^2.
# dihydrofolate reductase = experiment: Inhibition of dihydrofolate reductase; assay type: biochemical
# P388 = experiment: Antitumor activity against P388 leukemia in mice; assay type: in vivo, mouse; conditions: for Life Span % ILS / Life Span % T/C: optimal dose 40 mg/kg (dose range 80-2.5), ip daily, Days 1-9
# Method: The growth inhibition properties of 5-methyl-6-[[(3,4,5-trimethoxyphenyl)amino]methyl]-2,4-quinazolinediamine (trimetrexate) against several transplanted murine tumors were evaluated employing the antitumor screening program of the Drug Evaluation Branch of the National Cancer Institute. The protocols for these tests is described in Cancer Chemotherapy Reports, 3: 1-103 (1972). The dosing schedules are results from these tests appear in Table IV.
# In the L1210, P388, and B-16 melanoma models, results are expressed as a percentage of median control survival time. Percentage of increase in survival time and/or cures (30 day survivors) were the parameters used to measure the effectiveness of the agents. An initial median survival value for treated over control percentage (% T/C) equal to or greater than 125% was considered indicative of activity. For confirmatory activity, two multidose assays must show % T/C values equal to or greater than 150%.
# Percent increase in median life span (% ILS) values appearing in the tables were calculated from the formula; 100×(median life span in days of treated mice minus median life span in days of untreated mice) divided by median life span in days of untreated control mice. That is, % ILS=[100×(T-C)]/C. % T/C and %ILS are directly interconvertible by the formula % ILS=% T/C -100.
# L1210 Leukemic Cells (10^5 /mouse) and P388 leukemic cells (10^6 /mouse)were in the ascites form and were transferred to BD2F1 or CD2F1 mice by intraperitoneal (ip) injection of 0.1 ml of cells taken from animals bearing 6- to 7-day old tumors. Leukemic cells were injected ip one day prior to the start of treatment.
# In all of the mouse tumor studies described above, routine controls consisted of matching ten normal mice (with no tumors) to each tumor-bearing treatment group and injecting them with the same drug at the same dosages, schedules, days of administration, and drug route as the tumor-bearing mice. In this way, drug-induced toxicity (lethality and weight loss) could be clearly separated from the effects of the drug on the tumors.
# Oral bioavailability = conditions: in vivo, administered orally
# Miscell. tumors = experiment: Human tumor cloning system, miscellaneous tumors; assay type: cell-based; conditions: one hour, 10 specimens
# Excerpt: The activity of trimetrexate was compared with that of methotrexate in tests with a human tumor cloning system (Latham, et al., Proc. Am. Assoc. Cancer Res., 24: 278 (1983)). The data from these tests appear in Table III were the activities are expressed as the numbers of tumors with 50% or greater reduction in tumor colony forming units after one hour exposure to the drug.
# L1210 cells = experiment: Inhibition of L1210 cell growth in vitro; assay type: cell-based, murine
# Method: (§1) Two leukemia cell lines (L1210 and L5178Y) and two solid tumor cell lines (Sarcoma 180 and Walker 256) were used in these studies.
# (§2) Logarithmically growing L1210 cells (approximately 3×10^5 cells/ml) were diluted with Fischer's medium (containing 10% horse serum) to an approximate concentration of 5×10^4 cells/ml. Cells were planted in duplicate into 15 ml culture tubes containing either no drug or various amounts of drug, and incubated for 48 hours at 37° C. before being counted.
# *ED50 = the concentration of drug required to reduce the cell count
# to 50%, determined by plotting the cell count versus drug concentration.
# Sarcoma-180 = experiment: Inhibition of Sarcoma-180 cell growth in vitro; assay type: cell-based; conditions: Mus musculus, 48 h; Murine Sarcoma-180; read-out: ED50 (the source's name)
# Method: as §1, §2
# Trimetrexate was also evaluated in a similar manner side-by-side with methotrexate for its effect on the growth of three additional murine cell lines (L5178Y, Sarcoma-180, and Walkler-256) and three human cell lines (acute myelogenous leukemia K-562, T-cell 8402, and B-cell 8392), propagated in vitro.
# [2] = test system: non-small cell lung cancer; experiment: Phase II trial, non-small cell lung cancer; assay type: in vivo, human
# Method: The efficacy and safety of trimetrexate in the treatment of patients with non-small cell lung cancer was evaluated in a 16-center Phase II study.
# Initially, all patients received a single 8 mg/m^2 dose of trimetrexate daily for five days of a 21-day treatment course. The dose was administered at three- or four-week intervals, with the number of treatment courses dependent upon the patient's response.
# Objective response was determined by a decrease from baseline in tumor size as set forth by the World Health Organization (WHO) response criteria. Duration of response was measured from the date of first treatment to the first date when progressive disease was documented.
# Responses were classified as complete or partial. A complete response was defined as no evidence of disease and a partial response as a 50% or greater decrease in overall tumor size without evidence of progression in 28 days.
compound,measurement,setting,value
"COc1cc(NCc2ccc3nc(N)nc(N)c3c2C)cc(OC)c1OC [Trimetrexate, 5-methyl-6-[[(3,4,5-trimethoxyphenyl)amino]methyl]-2,4-quinazolinediamine]",patients with favorable responses,[1],two
same,inhibition of dihydrofolate reductase,dihydrofolate reductase,potent inhibitor
same,antitumor activity,"P388; mouse, in vivo",good activity
same,Life Span % ILS,P388; first line,143%
same,Life Span % T/C,P388; first line,243%
same,Life Span % ILS,P388; second line,142%
same,Life Span % T/C,P388; second line,242%
same,bioavailability,Oral bioavailability,~80%
same,Number of Tumors with 50% or Greater Decrease in Tumor Colony Forming Units,Miscell. tumors; trimetrexate 0.1 μg/ml,2
same,Number of Tumors with 50% or Greater Decrease in Tumor Colony Forming Units,Miscell. tumors; trimetrexate 1.0 μg/ml,1
same,inhibition of L1210 cell growth,L1210 cells,potent inhibitor of L1210 cell growth
same,IC50,"L1210 cells; Mus musculus, L1210, concentration required to reduce the cell count to 50%, 48 hours at 37° C, read-out: ED50 for L1210 Cells",7 nM
same,IC50,Sarcoma-180,18 nM
same,patients with stable disease,[2]; 23 patients,39%
same,median time to progressive disease,[2]; 23 patients with stable disease,15.7 weeks
same,patients who only experienced progressive disease,[2]; 25 patients,42%
same,median time to progression,[2]; 25 patients who only experienced progressive disease,3.4 weeks
same,median time to progressive disease,"[2]; 55 of the 59 evaluable patients, range 1.9-75.0",7.9 weeks
same,patients with partial response,"[2]; 59 evaluable patients, initial 8 mg/m^2 daily for five days of a 21-day course",Eleven
same,response rate (partial response),"[2]; 95% confidence interval 9%-29%, 59 evaluable patients",19%
same,additional patients with 50% regression only by liver measurements,[2]; in vivo,One
same,overall median survival time,[2]; in vivo,26.4 weeks
same,patients who only experienced progressive disease (number),[2]; in vivo,25 patients
same,patients with stable disease (number),[2]; in vivo,23 patients
same,patients without progressive disease at end of reporting period,[2]; in vivo,Four
same,median time to progressive disease,"[2]; patients who responded, range 11.1-47.0",24.9 weeks
same,median duration of partial response,[2]; range 5.6-40.7,15.3 weeks
